Four compounds from patent US20130005747A1, “METHOD FOR SELECTING A CANCER THERAPY” (Cyclacel Limited, priority 2010, published 2013) can be followed below.

By IC50 is commonly meant the point on the concentration scale where inhibition reaches its midpoint. Lower therefore signals inhibition by little substance.

In one assay the test system is H1650. Briefly: Cell line IC50 (Table 3). Type of assay: cell-based, human. Particulars: Lung.
In a further assay the test system is MDA-MB-436. Briefly: Cell line IC50 (Table 3). In kind it is cell-based, human. Particulars: Ras WT, Breast.
The next assay relates to H2052. Briefly: Cell line IC50 (Table 3). Type of assay: cell-based, human. The conditions noted are these: Mesothelioma.
For a further assay, the system named is LoVo. Briefly: Cell line IC50 (Table 3). Type of assay: cell-based, human. Particulars: K-Ras G13D, Colon.
For a further assay, the system named is H292. Briefly: Cell line IC50 (Table 3). Particulars: Lung. In kind it is cell-based, human.
The test system of a further assay is Colo205. Briefly: Cell line IC50 (Table 3). In kind it is cell-based, human. The conditions noted are these: Colon.
Another assay concerns NCI-H460. Briefly: Cell line IC50 (Table 3). Type of assay: cell-based, human. Particulars: K-Ras Q61H, Lung.
In the next assay the test system is A549. Briefly: Cell line IC50 (Table 3). Type of assay: cell-based, human. Particulars: K-Ras G12S, Lung.
A further assay concerns MESSA. Briefly: Cell line IC50 (Table 3). In kind it is cell-based, human. The conditions noted are these: Ras WT, sarcoma.
A further assay deals with MCF7. Briefly: Cell line IC50 (Table 3). Type of assay: cell-based, human. Particulars: Ras WT, Breast.
The next assay relates to NCI-H929. Briefly: Cell line IC50 (Table 3). In kind it is cell-based, human. Particulars: N-Ras, Myeloma.
A further assay concerns A2780. Briefly: Cell line IC50 (Table 3). In kind it is cell-based, human. The conditions noted are these: Ras WT, Ovary.
For the next assay, the system named is H358. Briefly: Cell line IC50 (Table 3). In kind it is cell-based, human. Particulars: Lung.
The next assay has as its system cell lines of Table 3. Briefly: Cell line panel of Table 3, summary over cell lines. Type of assay: cell-based, human. Particulars: median over the cell lines of Table 3.
In another assay the test system is Saos-2. Briefly: Cell line IC50 (Table 3). In kind it is cell-based. The conditions noted are these: Homo sapiens, Ras WT, Osteosarcoma.
For a further assay, the system named is HT-29. Briefly: Cell line IC50 (Table 3). Type of assay: cell-based. The conditions noted are these: Homo sapiens, Ras WT, Colon.
For a further assay, the system named is CDK. Briefly: CDK inhibitory profile. The conditions noted are these: compared with roscovitine. In kind it is biochemical.
The subject of another assay is LP-1. Briefly: Cell line IC50 (Table 3). Type of assay: cell-based. Particulars: Homo sapiens, Ras WT, Myeloma.
In a further assay the test system is HCT 116. Briefly: Cell line IC50 (Table 3). In kind it is cell-based. The conditions noted are these: Homo sapiens, K-Ras G13D, Colon.
Where [1] appears, read: Homo sapiens, NCI-H1650, Ras WT.
Where [2] appears, read: Homo sapiens, NCI-H2052, Ras WT.
Setting [3] is: Homo sapiens, NCI-H358, K-Ras G12C.

Take `CC[C@H](Nc1nc(NCc2cnc(C)cc2C)c2ncn(C(C)C)c2n1)[C@@H](C)O` [Compound A]: the 50% inhibitory concentration (IC50) with H1650 (Ras WT) turned out to be 500 nM; in the assay with MDA-MB-436, 400 nM; in the assay on H2052 (Ras WT), 300 nM; in the assay with LoVo, 700 nM; in the assay on H292 (Ras WT) it was 400 nM; with Colo205 (Ras WT) it was 300 nM. Besides, the IC50 in the assay with NCI-H460 came out at 500 nM; with A549, 200 nM; in the assay with MESSA, 200 nM; in the assay with MCF7, 300 nM; in the assay on NCI-H929, 400 nM; in the assay on A2780, 400 nM. Besides, the concentration for half-maximal inhibition (IC50) in the assay on H358 (K-Ras G12C) was 200 nM; with cell lines of Table 3 it was 400 nM.

As for `CC[C@@H](Nc1nc(NCc2cccnc2)c2ncn(C(C)C)c2n1)C(C)(C)O` [Compound B, (3R)-3-{9-isopropyl-6-[(pyridin-3-ylmethyl)-amino]-9H-purin-2-ylamino}-2-methyl-pentan-2-ol], the IC50 with H1650 (setting [1]) was found to be 6500 nM; with MDA-MB-436 (Homo sapiens) it was 6600 nM; with H2052 (setting [2]), 5200 nM; in the assay on LoVo (Homo sapiens), 4500 nM; in the assay on Saos-2, 5300 nM; in the assay with H292 (Homo sapiens, NCI-H292, Ras WT), 6600 nM. Moreover, the IC50 in the assay with Colo205 (Homo sapiens, COLO 205, Ras WT) turned out to be 4500 nM; with HT-29, 4100 nM; with NCI-H460 (Homo sapiens) it was 2800 nM; with A549 (Homo sapiens), 3000 nM; in the assay with MESSA (Homo sapiens, MES-SA), 3600 nM; in the assay on MCF7 (Homo sapiens), 3600 nM. Moreover, the 50% inhibitory concentration (IC50) came to 5200 nM in the assay with NCI-H929 (Homo sapiens), 2600 nM with A2780 (Homo sapiens), 2700 nM in the assay on H358 (setting [3]) and 4500 nM with cell lines of Table 3 (Homo sapiens). For the same compound, in the assay on CDK, the “CDK inhibitory profile (in words)” value was “very similar CDK inhibitory profiles to roscovitine”.

As to `CC[C@H](Nc1nc(NCc2cccnc2)c2ncn(C(C)C)c2n1)C(C)(C)O` [Compound C, (3S)-3-{9-isopropyl-6-[(pyridin-3-ylmethyl)-amino]-9H-purin-2-ylamino}-2-methyl-pentan-2-ol], the half-inhibitory concentration (IC50) in the assay on H1650 (setting [1]) turned out to be 3700 nM; in the assay with MDA-MB-436 (Homo sapiens), 3400 nM; in the assay on H2052 (setting [2]), 2400 nM; in the assay on LoVo (Homo sapiens), 2200 nM; in the assay with Saos-2, 2500 nM; in the assay with H292 (Homo sapiens, NCI-H292, Ras WT), 2300 nM. Moreover, the IC50 was 2300 nM with Colo205 (Homo sapiens, COLO 205, Ras WT); 1700 nM in the assay on HT-29; 2200 nM with NCI-H460 (Homo sapiens); 1600 nM with LP-1; 1600 nM with A549 (Homo sapiens); 1600 nM with MESSA (Homo sapiens, MES-SA). Moreover, the IC50 was determined as 1600 nM with HCT 116; 1600 nM with MCF7 (Homo sapiens); 2400 nM in the assay with NCI-H929 (Homo sapiens); 1100 nM with A2780 (Homo sapiens); 800 nM in the assay with H358 (setting [3]); 2200 nM in the assay with cell lines of Table 3 (Homo sapiens). In addition, in the assay on CDK, the “CDK inhibitory profile (in words)” value is “very similar CDK inhibitory profiles to roscovitine”.

Regarding `CC[C@H](Nc1nc(NCc2cccnc2)c2ncn(C(C)C)c2n1)[C@@H](C)O` [Compound D, (2R,3S)-3-({9-isopropyl-6-[(pyridin-3-ylmethyl)amino]-9H-purin-2-yl}amino)pentan-2-ol], the concentration for half-maximal inhibition (IC50) in the assay with H1650 (setting [1]) was found to be 1200 nM; with MDA-MB-436 (Homo sapiens) it was 1000 nM; in the assay on H2052 (setting [2]), 900 nM; in the assay with LoVo (Homo sapiens) it was 800 nM; in the assay with Saos-2, 1400 nM; in the assay on H292 (Homo sapiens, NCI-H292, Ras WT), 900 nM. For the same compound, the IC50 with Colo205 (Homo sapiens, COLO 205, Ras WT) came out at 800 nM; in the assay on HT-29, 1200 nM; in the assay on NCI-H460 (Homo sapiens) it was 700 nM; with LP-1 it was 500 nM; in the assay on A549 (Homo sapiens), 500 nM; in the assay with MESSA (Homo sapiens, MES-SA), 500 nM. In addition, the IC50 was 400 nM with HCT 116; 400 nM in the assay with MCF7 (Homo sapiens); 800 nM in the assay with NCI-H929 (Homo sapiens); 400 nM with A2780 (Homo sapiens); 300 nM with H358 (setting [3]); 800 nM with cell lines of Table 3 (Homo sapiens). The “CDK inhibitory profile (in words)” value in the assay on CDK is recorded as “very similar CDK inhibitory profiles to roscovitine”.
